Source: the supplement of paper PMC10307832

Assays:
Experiment in all cases: relative viability (nuclei count vs DMSO), 5 days (fraction); higher = more cells survive
RAF265 + Alpelisib = compound: Cn1c(Nc2ccc(C(F)(F)F)cc2)nc2cc(Oc3ccnc(-c4ncc(C(F)(F)F)[nH]4)c3)ccc21 [RAF265] + Cc1nc(NC(=O)N2CCC[C@H]2C(N)=O)sc1-c1ccnc(C(C)(C)C(F)(F)F)c1 [Alpelisib] (partner 2 µM)
Summary of the method: (§1)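 Relative viability equals treated-well nuclei counts divided by vehicle-well nuclei counts. Counts came from 4× images of lung cancer cell lines grown in 1536-well plates for 5 days after pin-tool dosing on the day after seeding. Dosing used one drug alone or a fixed anchor-drug dose plus five library-drug doses (not always all listed) in √10 steps, and values are medians of duplicate plates.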

RAF265 + OSI-027 = compound: Cn1c(Nc2ccc(C(F)(F)F)cc2)nc2cc(Oc3ccnc(-c4ncc(C(F)(F)F)[nH]4)c3)ccc21 [RAF265] + COc1cccc2cc(-c3nc([C@H]4CC[C@H](C(=O)O)CC4)n4ncnc(N)c34)[nH]c12 [OSI-027] (partner 0.5 µM)
Summary of the method: as §1

RAF265 + Crizotinib = compound: Cn1c(Nc2ccc(C(F)(F)F)cc2)nc2cc(Oc3ccnc(-c4ncc(C(F)(F)F)[nH]4)c3)ccc21 [RAF265] + C[C@@H](Oc1cc(-c2cnn(C3CCNCC3)c2)cnc1N)c1c(Cl)ccc(F)c1Cl [Crizotinib] (partner 1 µM)
Summary of the method: as §1

RAF265 + Foretinib = compound: Cn1c(Nc2ccc(C(F)(F)F)cc2)nc2cc(Oc3ccnc(-c4ncc(C(F)(F)F)[nH]4)c3)ccc21 [RAF265] + COc1cc2c(Oc3ccc(NC(=O)C4(C(=O)Nc5ccc(F)cc5)CC4)cc3F)ccnc2cc1OCCCN1CCOCC1 [Foretinib] (partner 0.25 µM)
Summary of the method: as §1

Cell Line	relative viability (RAF265 + Alpelisib; first compound 0.01 µM)	relative viability (RAF265 + Alpelisib; first compound 0.03162 µM)	relative viability (RAF265 + Alpelisib; first compound 0.1 µM)	relative viability (RAF265 + Alpelisib; first compound 0.3162 µM)	relative viability (RAF265 + Alpelisib; first compound 1 µM)	relative viability (RAF265 + OSI-027; first compound 0.01 µM)	relative viability (RAF265 + OSI-027; first compound 0.03162 µM)	relative viability (RAF265 + OSI-027; first compound 0.1 µM)	relative viability (RAF265 + OSI-027; first compound 0.3162 µM)	relative viability (RAF265 + OSI-027; first compound 1 µM)	relative viability (RAF265 + Crizotinib; first compound 0.01 µM)	relative viability (RAF265 + Crizotinib; first compound 0.03162 µM)	relative viability (RAF265 + Crizotinib; first compound 0.1 µM)	relative viability (RAF265 + Crizotinib; first compound 0.3162 µM)	relative viability (RAF265 + Crizotinib; first compound 1 µM)	relative viability (RAF265 + Foretinib; first compound 0.01 µM)	relative viability (RAF265 + Foretinib; first compound 0.03162 µM)	relative viability (RAF265 + Foretinib; first compound 0.1 µM)	relative viability (RAF265 + Foretinib; first compound 0.3162 µM)	relative viability (RAF265 + Foretinib; first compound 1 µM)
NCI-H23	0.738	0.601	0.643	0.416	0.222	0.734	0.46	0.412	0.318	0.221	0.623	0.502	0.473	0.388	0.248	0.741	0.847	0.739	0.724	0.442
NCI-H322M	0.811	0.784	0.544	0.28	0.265	0.589	0.519	0.41	0.358	0.186	0.897	0.839	0.866	0.281	0.282	1.09	1.03	0.781	0.402	0.275
NCI-H358	0.984	0.6	0.477	0.382	0.282	0.864	0.617	0.305	0.194	0.18	0.618	0.597	0.5	0.395	0.23	0.623	0.641	0.448	0.239	0.215
NCI-H441	0.793		0.429	0.392	0.311	0.612	0.591	0.454	0.346	0.351	0.779	0.656	0.715	0.73	0.473	1.28	1.04	0.966	0.884	0.623
NCI-H460	0.543	0.356	0.481		0.173	0.696	0.627	0.416	0.222	0.0945	0.972	0.904	0.743		0.881	1.06	0.982	1.06	1.04	1.1
NCI-H520	0.819	0.754	0.889	0.916	0.534	0.248	0.255	0.287	0.299	0.224	0.632	0.762	0.774	0.771	0.607	0.763	0.585	0.749	0.819	0.474
NCI-H596	0.561	0.444	0.495	0.513	0.359	0.982	0.751	0.784	0.563	0.554	0.933	0.938	0.962	0.924	0.711	0.739	0.929	0.866	0.691	0.626
NCI-H647	0.923	0.933	0.594	0.477	0.585	0.598	0.618	0.417	0.246	0.213	1.07	0.938	0.873	0.541	0.689	1.14	0.867	0.957	0.979	0.659
